Tests used:
[1] = In vitro intrinsic clearance; format: in vitro ADME; conditions: human liver microsomes, 1 μM
In short: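 Compound at 1 μM was incubated at 37° C with human liver microsomes (0.5 mg protein/mL) and 2 mM NADPH in pH 7.4 phosphate buffer, sampled at 0–30 min and analysed by LC-MS/MS. CLint was derived from t1/2 of depletion and scaled to human hepatic clearance with the well-stirred model (Q 20 mL·min^−1·kg^−1).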

[2] = tested on: STAT5 (Tyr694) phosphorylation in SET-2 cells; experiment: STAT5 (Tyr694) phosphorylation cell based assay; conditions: Homo sapiens, pSTAT5, 2 hours, read-out: SET2 IC50
In short: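 SET-2 cells (7×10^6 cells/mL, RPMI 10% FBS, 0.5% DMSO) treated with compound 2 h at 37 °C, then lysed 90 min at RT. Phospho-STAT5 (Tyr694) detected by HTRF sandwich antibodies after 24 h at RT, 665/620 ratio. IC50 from percent control activity versus log concentration, DMSO and high-concentration control compound as references.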

[3] = tested on: pSTAT5 signaling in SET-2 cells in whole blood; experiment: pSTAT5 SET-2 whole blood MSD assay; format: cell-based; conditions: Homo sapiens, pSTAT5, 2 hour, read-out: SET2 WB IC50
Description: Example F. pSTAT5 SET-2 Whole Blood MSD Assay
SET-2 cells shipped from ABS, RPMI1640 medium, Fetal Bovine Serum from Gibco, Phospho-STAT5a,b Whole Cell Lysate Kit from Mesoscale, Retronectin (Recombinant Human Fibronectin Fragment) from TaKaRa, 96 well cell culture plate flat bottom from Corning, lysis buffer from Cell Signaling Technology, and sterile PBS from Gibco. Whole Blood from by BioIVT.
SET-2 cells were cultured in RPMI media with 20% FBS at 37° C. humidified incubator supplied with 5% CO2. On the day of the assay, 40 uL per well of diluted retronectin working solution was added to sterile 96-well clear flat bottom tissue culture plates (1:200 dilution of retronectin in sterile PBS) and incubated at 37 C for 1 hour. After 1 hour, the retronectin working solution was aspirated and SET-2 cells were seeded at 100,000/well in RPMI+20% FBS. Cells were incubated overnight at 37° C. and 5% CO2. The next day, the medium was removed and 40 μL of diluted compounds in serum-free RPMI and whole blood was added to the cells for a 2 hour incubation at 37° C. and 5% CO2. The compound starting concentration is 20 μM and 2.5 fold serial diluted down to 0.21 nM. The whole blood and compound mixture was then aspirated off using the BlueCat plate washer and washed 1× with PBS. Cells were lysed by adding 40 μL of 3× complete lysis buffer and shaken at room temperature for 45-60 minutes (complete lysis buffer consists of Cell Signaling Technology lysis buffer diluted to 3× and supplemented with Mesoscale's protease inhibitor, phosphatase I inhibitor, and phosphatase II inhibitor). The pSTAT5 MSD plates were blocked by adding 150 μL of Blocker A solution per well to the MSD plates and incubated at room temperature with shaking at 400 rpm for one hour or longer. After blocking, plates were washed 3× with 300 μL/well of IX Tris Wash Buffer. After lysis, added 25 μL per well of lysed sample was added to MSD plate and incubated with shaking at 4° C. wrapped in foil overnight. The next day, plates were washed again and 25 μL/well of diluted 1× Detection Antibody Solution, wrapped in foil, and incubated at room temperature with shaking at 400 rpm for 1 hour. Plates were then washed again and lastly, 150 μL/well of 1× Read Buffer T was added to all wells. Plates were analyzed on MSD Discovery within 5 minutes. […] Data analysis was performed in GraphPad Prism using a 4-parameter fit and data was reported as Average±SD.

SMILES	h-IntCL [1]	IC50 [2]	IC50 [3]
[2H]C([2H])([2H])n1c(=O)n([C@@H]2CC[C@@H](NC(=O)OC)C2)c2c3c(-c4ccc5c(c4)COC5(C)C)c(-c4cn(C([2H])([2H])C([2H])([2H])[2H])nc4F)[nH]c3ncc21 [Example 19, Methyl ((1R,3R)-3-(8-(1,1-dimethyl-1,3-dihydroisobenzofuran-5-yl)-7-(1-(ethyl-d5)-3-fluoro-1H-pyrazol-4-yl)-3-(methyl-d3)-2-oxo-3,6-dihydroimidazo[4,5-d]pyrrolo[2,3-b]pyridin-1(2H)-yl)cyclopentyl)carbamate]	‡ ‡ (h-IntCL of ≥0.7 L/h/kg to ≤1 L/h/kg)	≤ 300 nM	≤ 2500 nM
[2H]C([2H])([2H])n1c(=O)n([C@@H]2CC[C@@H](NC(=O)OC)C2)c2c3c(-c4ccc5c(c4)COC5(C)C)c(-c4cn(CC)nc4F)[nH]c3ncc21 [Example 20, Methyl ((1R,3R)-3-(8-(1,1-dimethyl-1,3-dihydroisobenzofuran-5-yl)-7-(1-ethyl-3-fluoro-1H-pyrazol-4-yl)-3-(methyl-d3)-2-oxo-3,6-dihydroimidazo[4,5-d]pyrrolo[2,3-b]pyridin-1(2H)-yl)cyclopentyl)carbamate]	‡ ‡ (h-IntCL of ≥0.7 L/h/kg to ≤1 L/h/kg)	≤ 300 nM	≤ 2500 nM
[2H]C([2H])([2H])n1ncc2cc(-c3c(-c4cn(C([2H])(C([2H])([2H])[2H])C([2H])([2H])[2H])nc4F)[nH]c4ncc5c(c34)n([C@@H]3CC[C@@H](NC(=O)OC)C3)c(=O)n5C([2H])([2H])[2H])ccc21 [Example 21, Methyl ((1R,3R)-3-(7-(3-fluoro-1-(propan-2-yl-d7)-1H-pyrazol-4-yl)-3-(methyl-d3)-8-(1-(methyl-d3)-1H-indazol-5-yl)-2-oxo-3,6-dihydroimidazo[4,5-d]pyrrolo[2,3-b]pyridin-1(2H)-yl)cyclopentyl)carbamate]	‡ ‡ (h-IntCL of ≥0.7 L/h/kg to ≤1 L/h/kg)	≤ 300 nM	≤ 2500 nM

From US12084430B2, “Tricyclic urea compounds as JAK2 V617F inhibitors” (Incyte Corporation, priority 2022, dated 2024)
